PubChem BioAssay AID1549 (Sanford-Burnham Center for Chemical Genomics, 2009)
The source made the active and inactive calls. How the calls were made is not given here.

What follows are compounds tested against Influenza A virus M2 proton channel (A/TW/4845/1999 H1N1) (assay: NMR binding screen, influenza A virus M2 proton channel, Kd (AID 1549)). Details: M2 protein.
In the case of `c1ccc(CNc2ncnc3nc[nH]c23)nc1`, the Kd was > 4 mM (inactive). `Cc1cccc(C)c1N1C(=O)CCC1=O` was tested, and the Kd was > 4 mM (inactive). In the case of `NCCCCN=C(N)N`, the Kd was > 4 mM (inactive). In the case of `COc1ccc2cc1Oc1ccc(cc1)C[C@H]1c3c(cc4c(c3Oc3cc5c(cc3OC)CCN(C)[C@@H]5C2)OCO4)CCN1C`, the Kd was > 4 mM (inactive). For `O=C(O)CCC(=O)Nc1nnc(C(F)(F)F)s1`, the Kd was > 4 mM (inactive). In the case of `Nc1ccccc1-n1cccn1`, the Kd was > 4 mM (inactive). `O=S(=O)(O)c1nc2ccccc2[nH]1` was tested, and the Kd was > 4 mM (inactive). For `COc1cc([C@@H]2c3cc4c(cc3[C@H](OC(C)=O)[C@H]3COC(=O)[C@@H]23)OCO4)cc(OC)c1OC`, the Kd was > 4 mM (inactive). `O=C(O)C1C(=O)NCC1c1ccccc1` (centres undefined) was tested, and the Kd was > 4 mM (inactive). With `NC(=O)NC(=O)Nc1ccc(Cl)cc1` the Kd was > 4 mM (inactive). In the case of `CC(=O)OC[C@H]1O[C@@H](Oc2cc(OC(C)=O)c3c(=O)cc(-c4ccc(OC(C)=O)cc4)oc3c2)[C@H](OC(C)=O)[C@@H](OC(C)=O)[C@@H]1OC(C)=O`, the Kd was > 4 mM (inactive). `CC(=O)O[C@@H]1CC2C(C)(C)[C@H](O)CC[C@]2(C)C2CC[C@@]3(C)[C@H](c4ccoc4)OC(=O)C4OC43[C@@]21C` (some centres undefined) was tested, and the Kd was > 4 mM (inactive). For `OC1CCN(c2nccc(C(F)(F)F)n2)CC1`, the Kd was > 4 mM (inactive). For `Cc1nc(-c2cc(C(=O)O)no2)cs1`, the Kd was > 4 mM (inactive). With `OCc1ccc(Oc2ccccc2)nc1` the Kd was > 4 mM (inactive). With `CC(C)(C)NC(=O)N1CCC(C(=O)O)CC1` the Kd was > 4 mM (inactive). `OCC1COc2ccccc2C1` (centres undefined) was tested, and the Kd was > 4 mM (inactive). For `O=C1CSC(=Nc2ccccc2[N+](=O)[O-])N1`, the Kd was > 4 mM (inactive). In the case of `O=C(NC1=NCCS1)c1cccc(F)c1`, the Kd was > 4 mM (inactive). In the case of `COc1cc2c(cc1OC)-c1cc3ccc(OC)c(OC)c3c[n+]1CC2`, the Kd was > 4 mM (inactive). For `CCN(CC)S(=O)(=O)c1ccc(F)cc1`, the Kd was > 4 mM (inactive). With `NC(=O)C1CCN(CC2CC=CCC2)CC1` (centres undefined) the Kd was > 4 mM (inactive). For `Cn1nnc2cc(C(=O)Nc3cccnc3)ccc21`, the Kd was > 4 mM (inactive). For `Cc1c(C(=O)Nn2cnnc2)oc2ccccc12`, the Kd was > 4 mM (inactive). For `NC(=O)CC(=O)NC12CC3CC(CC(C3)C1)C2`, the Kd was > 4 mM (inactive). For `O=c1[nH]cc(N=Cc2ccc(F)cc2)c(=O)[nH]1`, the Kd was > 4 mM (inactive). For `CC1=C(/C=C/C(C)=C/C=C/C(C)=C/CO)C(C)(C)CCC1`, the Kd was > 4 mM (inactive). In the case of `CC12CNCC(C)(CNC1)C2O` (centres undefined), the Kd was > 4 mM (inactive). In the case of `OC[C@H]1O[C@@H](n2cnc3c(NCc4ccco4)ncnc32)[C@H](O)[C@@H]1O`, the Kd was > 4 mM (inactive). `CP(C)(=O)CCC(=O)O` was tested, and the Kd was > 4 mM (inactive). In the case of `c1ccc(-c2noc(-c3cccnc3)n2)nc1`, the Kd was > 4 mM (inactive). With `CC1C[C@H]2CC(=O)[C@H]3CCCN4CCC[C@H]2[C@]34C1` (some centres undefined) the Kd was > 4 mM (inactive). `COC(CC(=O)O)c1nc2ccccc2s1` (centres undefined) was tested, and the Kd was > 4 mM (inactive). `CSc1ncnc2nc[nH]c12` was tested, and the Kd was > 4 mM (inactive). `COc1cc(O)cc(/C=C/c2ccccc2)c1` was tested, and the Kd was > 4 mM (inactive). With `Cn1nc(C(=O)Nc2cccnc2)c2ccccc2c1=O` the Kd was > 4 mM (inactive). For `c1coc(CNc2ncnc3nc[nH]c23)c1`, the Kd was > 4 mM (inactive). With `Cc1n[nH]c(C)c1N` the Kd was > 4 mM (inactive). For `O=C(O)C(CO)c1ccccc1` (centres undefined), the Kd was > 4 mM (inactive). For `CC(=O)O[C@@H]1C=C[C@@]2(C)C(C[C@@H](OC(C)=O)[C@@]3(C)C4=CC(=O)O[C@@H](c5ccoc5)[C@]4(C)CCC23)C1(C)C` (some centres undefined), the Kd was > 4 mM (inactive). In the case of `O=C(Nc1ccc(Cl)cc1)N1CCCC1`, the Kd was > 4 mM (inactive). With `O=C1CCCc2c1nc(-c1ccccc1)n2O` the Kd was > 4 mM (inactive). With `CC1(C)Oc2ccc(N)cc2O1` the Kd was > 4 mM (inactive). For `NC(=O)c1ccsc1N`, the Kd was > 4 mM (inactive). `Cc1cccc(OCc2nnc(N)s2)c1` was tested, and the Kd was > 4 mM (inactive). With `C[C@@H]1O[C@@H](O[C@H]2[C@H](Oc3cc(O)c4c(=O)cc(-c5ccc(O)cc5)oc4c3)O[C@H](CO)[C@@H](O)[C@@H]2O)[C@H](O)[C@H](O)[C@H]1O` the Kd was > 4 mM (inactive). In the case of `Oc1ccc(-n2ccnc2)cc1`, the Kd was > 4 mM (inactive). In the case of `COc1cc(OC)c2ccc(=O)oc2c1`, the Kd was > 4 mM (inactive). In the case of `Cc1noc(-c2ccccc2)c1C(=O)O`, the Kd was > 4 mM (inactive). In the case of `CNC(=S)N1CCN=C1Nc1nc(C)cc(C)n1`, the Kd was > 4 mM (inactive). `Cc1nc2c(n1O)CCc1c-2no[n+]1[O-]` was tested, and the Kd was > 4 mM (inactive). In the case of `Nc1n[nH]c(=S)n1-c1ccccc1`, the Kd was > 4 mM (inactive). For `CNC(=S)Nc1ccc(C(=O)O)cc1`, the Kd was > 4 mM (inactive). In the case of `COc1ccc(-c2coc3c(OC)c(OC)cc(O)c3c2=O)cc1`, the Kd was > 4 mM (inactive). `[O-][n+]1cc(O)c(CN2CCOCC2)c2ccccc21` was tested, and the Kd was > 4 mM (inactive). In the case of `O=c1ccn(Cc2ccccc2)c(=O)n1Cc1ccccc1`, the Kd was > 4 mM (inactive). In the case of `Fc1ccc(CN2CCCNCC2)cc1`, the Kd was > 4 mM (inactive). `CC(=O)Nc1nc(C)nc(-c2ccccc2)c1C(C)=O` was tested, and the Kd was > 4 mM (inactive). In the case of `S=C(c1ccc(N2CCOCC2)cc1)N1CCOCC1`, the Kd was > 4 mM (inactive). In the case of `NCCc1c[nH]c2ccccc12`, the Kd was > 4 mM (inactive). For `CC(C)c1nnc(N)s1`, the Kd was > 4 mM (inactive). In the case of `O=c1c(O)c(-c2ccccc2)oc2ccc3occc3c12`, the Kd was > 4 mM (inactive). For `CCc1noc(C)c1C(=O)N1CCOCC1`, the Kd was > 4 mM (inactive). With `CC1=NN2C(=N)CC(=O)N=C2S1` the Kd was > 4 mM (inactive). For `COc1cccc(NC(=O)c2ocnc2C)c1`, the Kd was > 4 mM (inactive). In the case of `Cn1nc(-c2cccs2)cc1N`, the Kd was > 4 mM (inactive). With `O=c1[nH]c2sc3c(c2c2nncn12)CCCC3` the Kd was > 4 mM (inactive). With `COC(=O)C1Cc2ccccc2N1` (centres undefined) the Kd was > 4 mM (inactive). In the case of `Nc1nc(-c2nc3ccccc3[nH]2)cs1`, the Kd was > 4 mM (inactive). In the case of `COc1cc(-c2nnc(NC(C)=O)o2)cc(OC)c1OC`, the Kd was > 4 mM (inactive). For `Cc1ccc(NC(=O)CC2NCCNC2=O)c(C)c1` (centres undefined), the Kd was > 4 mM (inactive). With `O=C1CC(N2CCC(O)CC2)C(=O)N1c1ccc(F)cc1` (centres undefined) the Kd was > 4 mM (inactive). For `C=C1C2CC[C@@]3(C)[C@H](c4ccoc4)OC(=O)C[C@]13O[C@H]1CC(=O)C(C)(C)C(CC(=O)OC)C21C` (some centres undefined), the Kd was > 4 mM (inactive). In the case of `O=C1CCC(=O)N1CNc1ccccc1`, the Kd was > 4 mM (inactive). For `Cc1ccc(NC(=O)C(=O)Nc2ccccn2)cc1`, the Kd was > 4 mM (inactive). For `Cc1nc2nc(COc3ccccc3)nn2c(C)c1Cl`, the Kd was > 4 mM (inactive). `CC(=O)Oc1cc(OC(C)=O)c2c(c1)O[C@H](c1ccc(OC(C)=O)c(OC(C)=O)c1)[C@H](OC(C)=O)C2` was tested, and the Kd was > 4 mM (inactive). In the case of `CCN(CC)c1nc2n(c(=O)n1)CCO2`, the Kd was > 4 mM (inactive). With `O=C(O)Cn1cc(C(F)(F)F)ccc1=O` the Kd was > 4 mM (inactive). For `COc1cccc2c1CCC1=CC(=O)CC[C@@]12C`, the Kd was > 4 mM (inactive). For `C#CCCCCCCCCCCCC(=O)CC(O)COC(C)=O` (centres undefined), the Kd was > 4 mM (inactive). For `COc1ccc2nc(N)sc2c1`, the Kd was > 4 mM (inactive). In the case of `CCOC(=O)C(C)c1n[nH]c(=O)c2ccccc12` (centres undefined), the Kd was > 4 mM (inactive). `COC(=O)c1cc(-c2c(C)nn(-c3ccccc3)c2C)n[nH]1` was tested, and the Kd was > 4 mM (inactive).
